Experimental data taken from patent US12399427B2, “Photobase generator, compound, photoreactive composition and reaction product” (Tokyo University of Science Foundation, priority 2019, dated 2025).

Columns and labels:
[1] = Production of reaction product using photoreactive composition including compound (2) (Test Example 12); settings: 365 nm, up to 10000 mJ/cm^2, post-bake 160° C. 20 minutes
Protocol: Polyglycidylmethyl acrylate (PGMA, 0.1 g, molecular weight; 22000) showing the structure above, the compound (2) (0.005 g) and tetrahydrofuran (1 g) were blended and stirred at 25° C. for 1 minute to obtain a photoreactive composition.
The photoreactive compositions obtained above was applied onto a silicon wafer by a spin coating method under the conditions of 1500 rpm and 30 seconds. Next, after heating (pre-baking) this coating film (photoreactive composition layer) at 100° C. for 1 minutes, using a Hg—Xe lamp, the coating film was irradiated with light having a wavelength of 365 nm with an illuminance of 50 mW/cm^2 and the exposure doses of 0 mJ/cm^2 to 10000 mJ/cm^2. After light irradiation, the coating film was heated (post-baked) 160° C. for 20 minutes. The coating film after heated was developed with tetrahydrofuran for 30 seconds, and then the ratio of the thickness of the coating film after development to the coating film before light irradiation was measured.

[2] = Behavior of compound in methanol under light irradiation with wavelength of 313 nm or 365 nm (absorbance; Test Examples 1, 2, 8, 9); assay type: physicochemical; settings: 2.0×10^−5 mol/L; for molar absorption coefficient ε313: 313 nm; for molar absorption coefficient ε365: 365 nm
Protocol: (§1) The compound (1)-1 obtained above was dissolved in methanol so as to have a concentration of 2.0×10^−5 mol/L. Then, using a mercury xenon lamp, the illuminance was set to 5 mW/cm^2, the exposure doses were set to 0, 10, 30, 60 and 100 mJ/cm^2, and the obtained methanol solution was irradiated with light having a wavelength of 313 nm. Then, the absorbance of the compound (1)-1 was measured.
as §1, with “using an LED” for “using a mercury xenon”, “to 10” for “to 5”, “of 365” for “of 313”
as §1, with “compound (1)-2” for “compound (1)-1”, “to 10” for “to 5”, “0,” for “0, 10,”, “30, 100, 200” for “30, 60”, “and 300” for “and 100”
The compound (1)-2 obtained above was dissolved in methanol so as to have a concentration of 2.0×10^−5 mol/L. Then, using an LED lamp, the illuminance was set to 10 mW/cm^2, the exposure doses were set to 0, 30, 100, 200 and 300 mJ/cm^2, and the obtained methanol solution was irradiated with light having a wavelength of 365 nm. Then, the absorbance of the compound (1)-2 was measured.

[3] = Solubility of the compound in solvents (amount of solvent required to dissolve 10 mg); assay type: physicochemical
Protocol: Moreover, the solubility of the compound (1)-1 in the solvent was confirmed. Specifically, the amount of the solvent required to dissolve 10 mg of the compound (1)-1 was confirmed for each solvent. The amount of the solvent required was from 1 mL to 5 mL when tetrahydrofuran or acetone was used, and 1 mL or less when cyclopentanone, methanol or dimethyl sulfoxide was used.

| production of an insolubilized reaction product [1] | molar absorption coefficient ε313 [2] | molar absorption coefficient ε365 [2] | amount of the solvent required to dissolve 10 mg ([3]; cyclopentanone) | amount of the solvent required to dissolve 10 mg ([3]; dimethyl sulfoxide) | amount of the solvent required to dissolve 10 mg ([3]; methanol) | SMILES |
| --- | --- | --- | --- | --- | --- | --- |
| could not be produced | – | – | – | – | – | O=C(/C=C/c1ccccc1O)NC1CCCCC1 [compound (2)] |
| – | 13000 L/mol/cm | 3200 L/mol/cm | – | – | – | CN(C(=O)/C=C/c1ccccc1O)c1ccncc1 [compound (1)-2] |
| – | 23000 L/mol/cm | 6900 L/mol/cm | ≤ 1 mL | ≤ 1 mL | ≤ 1 mL | O=C(/C=C/c1ccccc1O)Nc1ccncc1 [compound (1)-1] |
